Measurements as given in PMC7413254 (Nature Communications, 2020).
Where two headings read alike, the source gives them in different places.

Columns and labels:
[1] = molecular target: PfCRT^Dd2 (Plasmodium falciparum, UniProt Q9N623, A220S/I356T/K76T/M74I/N326S/N75E/Q271E/R371I); assay: cell-based; type: cell-based; details: for Uptake of [3H]CQ (% PfCRTDd2 control), trans-stimulation / PfCRT-mediated [3H]CQ transport, trans-stimulation (% PfCRTDd2 control): PfCRTDd2 oocytes; for Uptake of [3H]CQ (% PfCRTDd2 control), trans-stimulation / Uptake of [3H]CQ (% PfCRTDd2 control), trans-stimulation, PfCRTDd2: total [3H]CQ transport; for Uptake of [3H]CQ (% PfCRTDd2 control), trans-stimulation: normalised to the oocyte type control; for PfCRT-mediated [3H]CQ transport, trans-stimulation (% PfCRTDd2 control): normalised to oocyte type control; for Uptake of [3H]CQ (% PfCRTDd2 control), trans-stimulation, PfCRTDd2 / [3H]CQ transport (% PfCRTDd2 control), trans-stimulation, PfCRTDd2: mean ± SEM, SEM; for [3H]CQ transport (% PfCRTDd2 control), trans-stimulation, PfCRTDd2: PfCRT-mediated component (background subtracted)
Procedure, shortened: (§1)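 Transport measured in Xenopus oocytes expressing the transporters, 1.5 h at 27.5 °C in ND96 pH 5.5 unless noted. For trans-stimulation, VF-6 injected in 25 nL ND96 at pH 5.0–7.0 or Na^+-free (choline) buffer; intracellular levels based on ~400 nL oocyte volume. Ten oocytes per treatment, ≥4 experiments.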

[2] = molecular target: PfCRT^3D7 (Plasmodium falciparum, UniProt Q8IBZ9); assay: cell-based; type: cell-based; details: for Uptake of [3H]CQ (% PfCRT3D7 control), trans-stimulation / PfCRT-mediated [3H]CQ transport, trans-stimulation (% PfCRT3D7 control): PfCRT3D7 oocytes; for Uptake of [3H]CQ (% PfCRT3D7 control), trans-stimulation / Uptake of [3H]CQ (% PfCRTDd2 control), trans-stimulation, PfCRT3D7: total [3H]CQ transport; for Uptake of [3H]CQ (% PfCRT3D7 control), trans-stimulation: normalised to the oocyte type control; for PfCRT-mediated [3H]CQ transport, trans-stimulation (% PfCRT3D7 control): normalised to oocyte type control; for Uptake of [3H]CQ (% PfCRTDd2 control), trans-stimulation, PfCRT3D7: mean ± SEM, SEM
Procedure, shortened: as §1

[3] = molecular target: PfCRT^Ecu1110 (Plasmodium falciparum, UniProt Q9N623, A220S/I356L/K76T/N326D); assay: cell-based; type: cell-based; details: for Uptake of [3H]CQ (% PfCRTEcu1110 control), trans-stimulation / PfCRT-mediated [3H]CQ transport, trans-stimulation (% PfCRTEcu1110 control): PfCRTEcu1110 oocytes; for Uptake of [3H]CQ (% PfCRTEcu1110 control), trans-stimulation / Uptake of [3H]CQ (% PfCRTDd2 control), trans-stimulation, PfCRTEcu1110: total [3H]CQ transport; for Uptake of [3H]CQ (% PfCRTEcu1110 control), trans-stimulation: normalised to the oocyte type control; for PfCRT-mediated [3H]CQ transport, trans-stimulation (% PfCRTEcu1110 control): normalised to oocyte type control; for Uptake of [3H]CQ (% PfCRTDd2 control), trans-stimulation, PfCRTEcu1110 / [3H]CQ transport (% PfCRTDd2 control), trans-stimulation, PfCRTEcu1110: mean ± SEM, SEM; for [3H]CQ transport (% PfCRTDd2 control), trans-stimulation, PfCRTEcu1110: PfCRT-mediated component (background subtracted), sheet title says normalised to PfCRTDd2 control
Procedure, shortened: as §1

[4] = molecular target: T1, PfNT1 (Plasmodium falciparum, UniProt Q8IDM6); assay: cell-based; type: cell-based; details: total [3H]CQ transport; for Uptake of [3H]CQ (% PfNT1 control), trans-stimulation: PfNT1 oocytes, normalised to the oocyte type control; for Uptake of [3H]CQ (% PfCRTDd2 control), trans-stimulation, PfNT1: mean ± SEM, SEM
T1 construct: expressed in transfected cells; host or cells: Xenopus laevis oocytes (stage V-VI), cRNA-injected
Procedure, shortened: as §1

[5] = test system: non-expressing oocytes; type: cell-based, Xenopus laevis; details: total [3H]CQ transport; for Uptake of [3H]CQ (% non-expressing oocyte control), trans-stimulation: non-expressing oocytes, normalised to the oocyte type control; for Uptake of [3H]CQ (% PfCRTDd2 control), trans-stimulation, non-expressing oocytes: mean ± SEM, SEM
Procedure, shortened: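 Oocytes (ten per treatment, ≥4 independent frogs/days) were preloaded by injecting VF-6 in 25 nL ND96 at pH 5.0, 5.5, 6.0 or 7.0, or Na^+-free choline buffer, then uptake run 1.5 h, 27.5 °C, ND96 pH 5.5 by default. Internal concentrations assumed ~400 nL oocyte volume.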

[6] = test system: PfCRT; assay: Potential co-substrates tested for influx of VF-6 via PfCRT into the oocyte; type: cell-based, Plasmodium falciparum; set-up: key: X: Compounds that have been tested as potential co-substrates but are not required for influx of VF-6 via PfCRT into the oocyte
[7] = test system: PfCRT; assay: Test of solutes as potential co-substrates for influx of VF-6 via PfCRT into the oocyte; type: cell-based, Plasmodium falciparum; set-up: key: X: Compounds that have been tested as potential co-substrates but are not required for influx of VF-6 via PfCRT into the oocyte; details: X = tested
[8] = [test solute]i = 45 mM (30 mM for some solutes due to solubility)
[9] = [test solute]i = 5 mM (intracellular)
[10] = [test solute]i = 45 mM (intracellular; 30 mM for some solutes due to solubility)
[11] = [test solute]i = 5 mM (injected)

T1 sequence (Q8IDM6 whole entry): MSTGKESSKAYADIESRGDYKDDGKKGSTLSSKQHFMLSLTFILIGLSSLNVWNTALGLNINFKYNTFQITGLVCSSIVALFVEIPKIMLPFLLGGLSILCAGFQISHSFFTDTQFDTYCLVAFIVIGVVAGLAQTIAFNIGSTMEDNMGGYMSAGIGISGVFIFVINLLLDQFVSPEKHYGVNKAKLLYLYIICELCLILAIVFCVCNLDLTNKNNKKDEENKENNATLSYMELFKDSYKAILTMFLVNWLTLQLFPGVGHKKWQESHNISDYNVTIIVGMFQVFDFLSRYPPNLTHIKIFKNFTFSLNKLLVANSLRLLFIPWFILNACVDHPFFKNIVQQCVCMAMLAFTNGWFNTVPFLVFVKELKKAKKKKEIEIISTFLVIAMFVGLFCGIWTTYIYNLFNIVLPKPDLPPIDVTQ
PfCRT^Dd2, sequence (Q9N623 whole entry A220S/I356T/K76T/M74I/N326S/N75E/Q271E/R371I): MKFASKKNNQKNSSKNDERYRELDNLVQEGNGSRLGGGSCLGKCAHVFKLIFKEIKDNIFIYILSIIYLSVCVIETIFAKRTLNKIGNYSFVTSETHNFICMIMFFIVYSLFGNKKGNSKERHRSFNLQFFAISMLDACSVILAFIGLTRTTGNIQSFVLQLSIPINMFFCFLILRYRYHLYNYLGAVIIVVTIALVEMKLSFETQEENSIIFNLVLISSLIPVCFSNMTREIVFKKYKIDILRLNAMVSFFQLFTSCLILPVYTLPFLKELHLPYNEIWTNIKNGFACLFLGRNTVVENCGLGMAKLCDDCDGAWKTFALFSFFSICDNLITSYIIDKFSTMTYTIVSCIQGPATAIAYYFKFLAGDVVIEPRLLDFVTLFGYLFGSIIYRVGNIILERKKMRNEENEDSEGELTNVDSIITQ
PfCRT^3D7, sequence (Q8IBZ9 59-398): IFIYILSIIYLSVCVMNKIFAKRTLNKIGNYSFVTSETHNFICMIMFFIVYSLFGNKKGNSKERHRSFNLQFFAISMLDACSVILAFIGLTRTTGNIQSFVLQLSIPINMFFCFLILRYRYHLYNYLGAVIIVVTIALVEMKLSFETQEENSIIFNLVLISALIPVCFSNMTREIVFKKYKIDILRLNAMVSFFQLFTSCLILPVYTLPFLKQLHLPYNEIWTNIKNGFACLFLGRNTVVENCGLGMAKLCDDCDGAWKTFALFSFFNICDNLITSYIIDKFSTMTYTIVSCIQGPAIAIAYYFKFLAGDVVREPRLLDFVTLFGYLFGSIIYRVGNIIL
PfCRT^Ecu1110, sequence (Q9N623 whole entry A220S/I356L/K76T/N326D): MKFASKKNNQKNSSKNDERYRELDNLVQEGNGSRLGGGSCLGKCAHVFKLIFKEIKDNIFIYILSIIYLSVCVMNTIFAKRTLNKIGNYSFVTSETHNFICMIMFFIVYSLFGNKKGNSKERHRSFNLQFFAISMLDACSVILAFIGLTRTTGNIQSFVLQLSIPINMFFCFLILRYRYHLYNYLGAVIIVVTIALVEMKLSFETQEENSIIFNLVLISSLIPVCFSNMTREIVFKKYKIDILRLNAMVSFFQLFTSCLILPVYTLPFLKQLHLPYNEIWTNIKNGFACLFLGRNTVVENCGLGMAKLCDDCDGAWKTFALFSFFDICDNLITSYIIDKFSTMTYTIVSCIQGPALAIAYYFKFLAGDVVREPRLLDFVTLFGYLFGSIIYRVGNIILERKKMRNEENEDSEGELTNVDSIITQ

Compound: NC(=O)C[C@H](N)C(=O)O [L-asparagine]
- Uptake of [3H]CQ (% PfCRTDd2 control), trans-stimulation ([1]; [test solute]i = 5 mM): 101 ± 3.1 % PfCRTDd2 control
- Uptake of [3H]CQ (% PfCRTDd2 control), trans-stimulation [1, 8]: 98 ± 2.4 % PfCRTDd2 control
- PfCRT-mediated [3H]CQ transport, trans-stimulation (% PfCRTDd2 control) [1, 9]: 99 ± 2.4 % PfCRTDd2 control
- PfCRT-mediated [3H]CQ transport, trans-stimulation (% PfCRTDd2 control) [1, 10]: 96 ± 3.2 % PfCRTDd2 control
- Uptake of [3H]CQ (% PfCRTDd2 control), trans-stimulation, PfCRTDd2 [1, 9]: 101 ± 3.1 % PfCRTDd2 control
- Uptake of [3H]CQ (% PfCRTDd2 control), trans-stimulation, PfCRTDd2 [1, 10]: 98 ± 2.4 % PfCRTDd2 control
- [3H]CQ transport (% PfCRTDd2 control), trans-stimulation, PfCRTDd2 [1, 11]: 99 ± 2.4 % PfCRTDd2 control
- [3H]CQ transport (% PfCRTDd2 control), trans-stimulation, PfCRTDd2 [1, 8]: 96 ± 3.2 % PfCRTDd2 control
- Uptake of [3H]CQ (% PfCRT3D7 control), trans-stimulation ([2]; [test solute]i = 5 mM): 100 ± 4.2 % PfCRT3D7 control
- Uptake of [3H]CQ (% PfCRT3D7 control), trans-stimulation [2, 8]: 100 ± 3.7 % PfCRT3D7 control
- PfCRT-mediated [3H]CQ transport, trans-stimulation (% PfCRT3D7 control) [2, 9]: 98 ± 3.6 % PfCRT3D7 control
- PfCRT-mediated [3H]CQ transport, trans-stimulation (% PfCRT3D7 control) [2, 10]: 98 ± 2.8 % PfCRT3D7 control
- Uptake of [3H]CQ (% PfCRTDd2 control), trans-stimulation, PfCRT3D7 [2, 9]: 3.3 ± 0.01 % PfCRTDd2 control
- Uptake of [3H]CQ (% PfCRTDd2 control), trans-stimulation, PfCRT3D7 [2, 10]: 3.3 ± 0.04 % PfCRTDd2 control
- Uptake of [3H]CQ (% PfCRTEcu1110 control), trans-stimulation ([3]; [test solute]i = 5 mM): 98 ± 4.1 % PfCRTEcu1110 control
- Uptake of [3H]CQ (% PfCRTEcu1110 control), trans-stimulation [3, 8]: 98 ± 3.2 % PfCRTEcu1110 control
- PfCRT-mediated [3H]CQ transport, trans-stimulation (% PfCRTEcu1110 control) [3, 9]: 96 ± 2.1 % PfCRTEcu1110 control
- PfCRT-mediated [3H]CQ transport, trans-stimulation (% PfCRTEcu1110 control) [3, 10]: 96 ± 2.7 % PfCRTEcu1110 control
- Uptake of [3H]CQ (% PfCRTDd2 control), trans-stimulation, PfCRTEcu1110 [3, 9]: 35 ± 1.8 % PfCRTDd2 control
- Uptake of [3H]CQ (% PfCRTDd2 control), trans-stimulation, PfCRTEcu1110 [3, 10]: 35 ± 2.1 % PfCRTDd2 control
- [3H]CQ transport (% PfCRTDd2 control), trans-stimulation, PfCRTEcu1110 [3, 11]: 32 ± 1.6 % PfCRTEcu1110 control
- [3H]CQ transport (% PfCRTDd2 control), trans-stimulation, PfCRTEcu1110 [3, 8]: 32 ± 2.1 % PfCRTEcu1110 control
- Uptake of [3H]CQ (% PfNT1 control), trans-stimulation ([4]; [test solute]i = 5 mM): 100 ± 2.5 % PfNT1 control
- Uptake of [3H]CQ (% PfNT1 control), trans-stimulation [4, 8]: 99 ± 3.6 % PfNT1 control
- Uptake of [3H]CQ (% PfCRTDd2 control), trans-stimulation, PfNT1 [4, 9]: 2.8 ± 0.04 % PfCRTDd2 control
- Uptake of [3H]CQ (% PfCRTDd2 control), trans-stimulation, PfNT1 [4, 10]: 3.1 ± 0.06 % PfCRTDd2 control
- Uptake of [3H]CQ (% non-expressing oocyte control), trans-stimulation ([5]; [test solute]i = 5 mM): 100 ± 3.7 % non-expressing oocyte control
- Uptake of [3H]CQ (% non-expressing oocyte control), trans-stimulation [5, 8]: 99 ± 3.0 % non-expressing oocyte control
- Uptake of [3H]CQ (% PfCRTDd2 control), trans-stimulation, non-expressing oocytes [5, 9]: 3.2 ± 0.02 % PfCRTDd2 control
- Uptake of [3H]CQ (% PfCRTDd2 control), trans-stimulation, non-expressing oocytes [5, 10]: 2.4 ± 0.02 % PfCRTDd2 control
- Tested as potential co-substrate but not required for influx of VF-6 via PfCRT into the oocyte [6]: X
- Tested as potential co-substrate but not required for influx of VF-6 via PfCRT into the oocyte [7]: X
